# What was measured:
# Format in all cases: functional
# Mus musculus [1] = assay: Antiinflammatory activity in mouse assessed as inhibition of TPA-induced ear edema at 400 nmol
# Mus musculus [2] = assay: Antiinflammatory activity in mouse assessed as inhibition of TPA-induced ear edema at 430 nmol
# Mus musculus [3] = assay: Antiinflammatory activity in mouse assessed as inhibition of TPA-induced ear edema at 560 nmol
Compound,inhibition (INH) (Mus musculus [1]) [%],also measured
C=C(CC[C@@H](C)[C@H]1CC[C@@]2(C)C3=C(C[C@H](O)[C@]12C)[C@@]1(C)CC[C@@H](OC(=O)CC(=O)O)C(C)(C)[C@@H]1CC3)[C@H](C)C(=O)O,65,–
C=C(CC[C@@H](C)[C@H]1CC[C@@]2(C)C3=C(C[C@H](O)[C@]12C)[C@@]1(C)CC[C@@H](OC(=O)CC(C)(O)CC(=O)OC)C(C)(C)[C@@H]1CC3)[C@H](C)C(=O)O (some centres not stated),75,–
C=C(CC[C@@H](C)[C@H]1CC[C@@]2(C)C3=C(C[C@H](O)[C@]12C)[C@@]1(C)CC[C@@H](OC(=O)C[C@](C)(O)CC(=O)OC)C(C)(C)[C@@H]1CC3)[C@H](C)C(=O)O,86,–
CC1(C)[C@@H](O)CC[C@]2(C)[C@H]3C(=O)C=C4[C@@H]5C[C@@](C)(C(=O)O)CC[C@]5(C)CC[C@@]4(C)[C@]3(C)CC[C@@H]12 [ENOXOLONE],–,inhibition (INH) (Mus musculus [2]): 24%
COc1ccc2c(c1)c(CC(=O)O)c(C)n2C(=O)c1ccc(Cl)cc1 [INDOMETHACIN],–,inhibition (INH) (Mus musculus [3]): 16%
C=C(CC[C@@H](C)[C@H]1CC[C@@]2(C)C3=C(C[C@H](O)[C@]12C)[C@@]1(C)CC[C@@H](O)C(C)(C)[C@@H]1CC3)[C@H](C)C(=O)O [POLYPORENIC ACID A],64,–
C=C(CC[C@@H](C(=O)O)[C@H]1[C@H](O)C[C@@]2(C)C3=CC[C@H]4C(C)(C)C(=O)CC[C@]4(C)C3=CC[C@]12C)C(C)C [POLYPORENIC ACID B],49,–
